Measured values published in the METLIN SMRT retention time set (Domingo-Almenara et al. 2019).

Assay: gradient 5% acetonitrile 3 min, to 50% in 2 min, to 85% in 15 min, held 3 min, 100 µL/min
Conditions: column: Zorbax Extend-C18 2.1 x 50 mm; eluents: water / acetonitrile, 0.1% formic acid
How it was run: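 Mixtures of ~100 pure standards were chromatographed on a Zorbax Extend-C18 column (2.1 × 50 mm, 1.8 μm) at 100 μL/min using water and acetonitrile, each with 0.1% formic acid. Detection used a quadrupole time-of-flight mass spectrometer in positive and negative ionization mode, and data collection spanned 3 months. Retention time was obtained from adduct peaks picked computationally and each checked manually.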

| RP-LC retention time [s] | SMILES |
| --- | --- |
| 768 | O=C(c1cc(C2CC2)n(C2CCS(=O)(=O)C2)n1)N1CCc2ccccc21 (configuration not stated) |
| 614 | COC(=O)C1=C(CN2CCN(C)CC2)NC(=O)NC1c1cc(C)ccc1C (configuration not stated) |
| 733 | Cc1ccc(-c2nc3n(CC(=O)NC(C)C)c4c(c(=O)n3n2)CCC4)cc1 |
| 655 | Cc1ccc(CNC(=O)c2cc3n(n2)CCCN(Cc2ccc(Cl)cc2)C3=O)o1 |
| 794 | COc1ccc(S(=O)(=O)N2CC3CN(C(=O)c4cccc(F)c4)CC(C2)O3)cc1 |
| 688 | CCNC(=O)C1CCCN(c2nc3ncn(CC(=O)Nc4ccc(OCC)cc4)c(=O)c3s2)C1 (configuration not stated) |
| 624 | CN(CCNC(=O)C1CCCN(c2nn3c(=O)c4c(nc3s2)CCCC4)C1)Cc1ccccc1 (configuration not stated) |
| 503 | CCOC(=O)Cn1nc(-n2ccnc2)ccc1=O |
| 981 | O=C(Cc1csc(SCC(=O)c2ccccc2)n1)Nc1cccc2nsnc12 |
| 742 | Cc1cc(C)n(-c2ccnc(N3CCC(C(=O)NCc4ccco4)CC3)n2)n1 |
| 783 | CCOc1ccc(-n2ccn3c(CCCC(=O)NC4CCCCCC4)nnc3c2=O)cc1 |
| 916 | CCOc1ccc(C(=O)N2CCN(c3cc(-c4ccc(Cl)cc4)[nH]n3)CC2)cc1OCC |
| 814 | CCOC(=O)c1nnn(C(CC)C(=O)Nc2ccc(OC)cc2)c1C(=O)OCC (configuration not stated) |
| 777 | COc1ccc(CNC(=O)C2CCc3nc(N4CCOCC4)ncc3C2)cc1 (configuration not stated) |
| 1200 | O=S(=O)(c1ccc(F)cc1F)N1CCc2nc(-c3ccc(Cl)cc3)ncc2C1 |
| 1030 | CC1(C(=O)NCc2ccc(F)cc2)CCCN(C(=O)Nc2cccc(Br)c2)C1 (configuration not stated) |
| 718 | CCn1c(C2CCN(C(=O)Nc3cccc(Cl)c3)CC2)cc(=O)n2nccc12 |
| 569 | COCc1nc2c(N)cccn2n1 |
| 748 | CC(C)n1cnc(S(=O)(=O)N2CCC(C(=O)Nc3ccccc3)CC2)c1 |
| 595 | O=C(CCc1cc2ccccc2[nH]c1=O)NCCN1CCCCCC1 |
| 844 | Cc1ccccc1-n1ccn(Cc2nc(-c3ccc(F)cc3)no2)c(=O)c1=O |
| 567 | COc1cc(CN2CCc3nc(N4CCN(c5ccccn5)CC4)ncc3C2)cc(OC)c1OC |

| RP-LC retention time [s] | SMILES |
| --- | --- |
| 987 | CC1=NS(=O)(=O)N(C)C=C1C(=O)OCc1nc(Cc2ccccc2C)no1 |
| 1120 | Cc1cc(C)c(S(=O)(=O)N2CCC(n3cnc4c(C)cccc4c3=O)CC2)c(C)c1 |
| 1010 | CCOc1ccccc1NC(=O)N1CCc2nc(-c3ccccc3)ncc2C1 |
| 919 | Cc1cccc(OCc2nc(CCN(C)C(=O)Nc3ccccc3C)no2)c1 |
| 615 | CNC(=O)[C@@H]1CN(C(=O)c2ccsc2)C[C@H]1c1nc(C)no1 |
| 923 | CCc1ccc(S(=O)(=O)Nc2ccc3c(c2)N(C(=O)c2cccs2)CC3)s1 |
| 648 | CC(C)n1c(CC2CCN(C(=O)Nc3ccccc3Cl)C2)nc2cccnc21 (configuration not stated) |
| 816 | COc1cccc(C(=O)Nc2ccc3c(c2)Sc2ncccc2C(=O)N3C)c1OC |
| 935 | Cc1nc(-c2csc(S(=O)(=O)N3CCCC(C(=O)Nc4ccc(C#N)cc4)C3)c2)no1 (configuration not stated) |
| 586 | CN(C)C(CNC(=O)NCc1cccs1)c1cn(C)c2ccccc12 (configuration not stated) |
| 748 | O=C(NCc1cccc(C(F)(F)F)c1)c1cn2ccccc2n1 |
| 946 | CCC(C)NC(=O)c1cc2c(n(-c3ccc(C(F)(F)F)cc3)c1=O)CCCC2=O (configuration not stated) |
| 690 | COc1ccc(-c2cn3cccnc3n2)cc1NS(=O)(=O)c1ccc(C)cc1 |
| 602 | CCN1CCN(CCNC(=O)c2cc3n(n2)CCCN(Cc2cccc(C)c2)C3=O)CC1 |
| 1140 | CCOc1ccccc1CNC(=O)c1nnc(-c2ccc(S(=O)(=O)N3CCC(C)CC3)cc2)o1 |
| 675 | Cc1ccccc1NC(=O)C1CCN(S(=O)(=O)c2c(C)[nH]c(C)c2C(=O)N2CCCC2)CC1 |
| 871 | CCCN(CC1CCOC1)C(=O)Nc1cc(F)cc(F)c1 (configuration not stated) |
| 941 | CC(C)c1nc2ccc(C(=O)NCCc3c[nH]c4ccc(Cl)cc34)cc2o1 |
| 926 | CCS(=O)(=O)c1ccc2c(c1)N(Cc1nc(-c3cccc(C)c3)no1)C(=O)CO2 |
| 805 | CCCc1ccc(S(=O)(=O)N2CCN(c3cnn4c(C)nnc4c3)CC2)cc1 |
| 841 | COc1ccc(F)cc1S(=O)(=O)N1CC(c2nc(-c3ccsc3)nn2C)C1 |
| 792 | CCCn1c(=O)sc2cc(S(=O)(=O)N3CCN(C(=O)c4ccnn4C)CC3)ccc21 |

| RP-LC retention time [s] | SMILES |
| --- | --- |
| 673 | COC(=O)C1C(O)CCC2CN3CCc4c([nH]c5ccccc45)C3CC21 (configuration not stated) |
| 1020 | O=C(NCc1ccccc1)C1CCN(S(=O)(=O)c2cc(-c3noc(C4CCC4)n3)cs2)CC1 |
| 736 | O=C(Nc1ccccc1)N1CCc2nn(Cc3ccccc3)c(=O)n2CC1 |
| 642 | CCOc1ccc(Nc2c(C(=O)N3CCSCC3)cnc3nc(C)ccc23)cc1 |
| 1050 | CCn1cc(C(=O)Nc2ccc(C)c(C)c2)c(S(=O)(=O)N2CCSCC2)n1 |
| 1240 | COc1ccccc1-c1nc(Cn2nnc(-c3nc(-c4ccc(C(F)(F)F)cc4)no3)c2C)c(C)o1 |
| 663 | Cc1cc(C)nc(SCCCNC(=O)Nc2cc(C)on2)n1 |
| 624 | COC(=O)Cn1c(=O)oc2cc(S(=O)(=O)N3CCN(c4ccccn4)CC3)ccc21 |
| 898 | COc1ccccc1CNc1ncc(C(=O)O)c(C(C)C)n1 |
| 789 | COCc1cc(=O)n(CC(=O)Nc2ccccc2F)c(N2CCOCC2)n1 |
| 871 | CCOc1ccccc1C(=O)Nc1ccc2c(c1)Sc1ncccc1C(=O)N2C(C)C |
| 952 | CC1CCN(C(=O)C2=NN(CC(=O)OC(C)C)c3ccccc3S2(=O)=O)CC1 |
| 676 | CC(=O)N1c2ccc(S(=O)(=O)N3CCCCC3)cc2CC1C(=O)NCCN(C)Cc1ccccc1 (configuration not stated) |
| 644 | CCc1nnc([C@@H]2CC(F)(F)CN2C(=O)c2ocnc2C)o1 |
| 936 | COC(=O)c1cccc(C(=O)Nc2cc(C)ccc2C)n1 |
| 681 | COc1ccc(CSc2nccc3c2ccn3CC(=O)NCc2ccc(OC)c(OC)c2)cc1 |
| 872 | CCc1cccc(NC(=O)C2CCN(S(=O)(=O)c3cc(C(=O)N4CCCC4)n(C)c3)CC2)c1 |
| 958 | CCCOC(=O)C1=C(C)NC2=C(C(=O)C(C(=O)OC)C(C)C2)C1c1ccc(F)cc1 (configuration not stated) |
| 678 | O=C1CCCC(=O)N1CCS(=O)(=O)NCC1(c2ccccc2)CCOCC1 |
| 721 | CCC(=O)Nc1ccc(-n2cnc(C(=O)N3CCc4ccccc4C3)c2)nc1 |
| 730 | NC(=O)Cn1c2ccccc2c2ncn(Cc3nc(-c4ccccc4)no3)c(=O)c21 |
| 788 | O=C(NC(Cc1ccccc1)c1nnc(N2CCCCCC2)o1)C1CC1 (configuration not stated) |

| RP-LC retention time [s] | SMILES |
| --- | --- |
| 700 | CCOC(=O)c1ccc(NC(=O)CCc2c(-c3ccc(F)cc3)nc3ccccn23)cc1 |
| 652 | Cn1cc(S(=O)(=O)N2CCCC2)cc1C(=O)N1CCn2c1nc1ccccc12 |
| 936 | CCc1ccc(C(C)NC(=O)c2ccc3[nH]cc(C(=O)C(=O)N4CCCCCC4)c3c2)cc1 (configuration not stated) |
| 789 | COC(=O)C1=CN(c2ccc(F)c(F)c2)c2ccccc2S1(=O)=O |
| 958 | COc1ccc(C2(C(=O)N3CCC(c4nc(CCOCc5ccccc5)no4)C3)CC2)cc1 (configuration not stated) |
| 571 | CN(C)[C@@H]1CN(C(=O)c2cc(Cl)ccc2F)C[C@H]1CO |
| 1030 | CC(C)Cn1c(=O)c(C(=O)NCc2cccc(C(F)(F)F)c2)nc2cccnc21 |
| 858 | Cc1sc2ccn(Cc3ccc(F)cc3)c(=O)c2c1C(=O)NCC1CC1 |
| 927 | CCN1C(=O)c2cccnc2Sc2cc(NC(=O)COc3ccc(Cl)cc3)ccc21 |
| 697 | CCOc1ccc2nc(C(=O)NC3CC3)cn2n1 |
| 921 | CC(C)CC(=O)Nc1nc(-c2ccc3c(c2)N(C)C(=O)C(C)O3)cs1 (configuration not stated) |
| 646 | Cc1ccc2c(c1)C1CC(C)(O2)N(c2cccc(C(=O)NCc3ccccn3)c2)C(=O)N1 (configuration not stated) |
| 610 | CCn1ccc(C(=O)N2CC(c3nc(C4CC4)nn3C)C2)n1 |
| 677 | O=C(CCc1c(-c2ccc(F)cc2)nc2ccccn12)NCc1cccc(Br)c1 |
| 990 | CC1Oc2ccc(-c3csc(NC(=O)c4ccc(Br)cc4)n3)cc2NC1=O (configuration not stated) |
| 706 | CNC(=O)[C@@H]1C[C@H](Oc2ccccc2)CN1C(=O)c1n[nH]c2ccccc12 |
| 873 | Cc1cccc(-c2nnc(SCc3cc(=O)n4c(C)csc4n3)o2)c1 |
| 970 | CC1(C(=O)NCc2ccccc2)CCN(S(=O)(=O)c2ccccc2C(F)(F)F)CC1 |
| 809 | Cc1ccc(Cl)cc1N(C)C(=O)Cn1cnc2nc3c(cc2c1=O)CCCC3 |
| 983 | CCOc1nc2ccccc2nc1N1CCCC(C(=O)N2CCOCC2)C1 (configuration not stated) |

| SMILES | RP-LC retention time [s] |
| --- | --- |
| COc1ccc2c(c1)C1(CCN(S(=O)(=O)c3cccc(C#N)c3)C1)C(=O)N2C (configuration not stated) | 875 |
